Format in all cases: cell-based
One experiment deals with Escherichia coli. In words: Micromax assay of ciprofloxacin-induced DNA fragmentation after a protein synthesis inhibitor (Example 1). As to conditions: for DNA fragmentation of nucleoids: tobramycin 4 μg/ml 10 min followed by ciprofloxacin 1 μg/ml 30 min. The procedure: As an exemplification of the principals previously described, two strains of Escherichia coli exponentially growing in Mueller-Hinton broth were assayed (FIGS. 1-6). The first strain of Escherichia coli was a TG1 strain susceptible to both the aminoglycoside tobramycin (an inhibitor of protein synthesis) and the quinolone ciprofloxacin (an agent which induces DNA fragmentation by trapping of topoisomerases in DNA) (FIGS. 1-3). The second strain was a clinical isolate resistant to tobramycin and susceptible to ciprofloxacin (FIGS. 4-6). Four treatments were applied to each strain to rapidly distinguish the susceptible and the resistant strain to tobramycin.
One portion of both bacterial strains was incubated with tobramycin at 4 μg/ml for 40 minutes (FIGS. 1 and 4), a dosage indicated by the CLSI as the breakpoint of susceptibility to tobramycin in the standard antibiogram based on microdilution. Another portion of both strains was incubated with ciprofloxacin at 1 μg/ml for 30 min (FIGS. 2 and 5). Still another portion of both strains was incubated with tobramycin at 4 μg/ml for 10 min followed by ciprofloxacin at 1 μg/ml for 30 min, without removing the tobramycin (FIGS. 3 and 6). A final portion was left with no antibiotic.
After each incubation cells were processed using the variant of the Micromax technology to visualize the nucleoids, i.e. bacterial chromosomal DNA, in all the cells of the population. Cells from each culture were immersed in an agarose microgel on a slide and incubated with a specific lysing solution to remove the cell wall in all the cells and release in the microgel the nucleoids contained inside the bacteria. These are dried, stained with a high sensitive fluorochrome for DNA like SYBR Gold and visualized under fluorescence microscopy. FIGS. 1-6 depicts representative images captured under each of the conditions described below.
The above described methodology was employed to rapidly determine the susceptibility of 12 strains of E. coli to tobramycin. One portion of each bacterial strain was incubated with tobramycin at the susceptibility breakpoint dosage, 4 μg/ml, for 40 min. A portion of each strain was incubated with ciprofloxacin at 1 μg/ml for 30 min. Still another portion of each strain was incubated with tobramycin at 4 μg/ml for 10 min followed by ciprofloxacin at 1 μg/ml for 30 min, without removing the tobramycin. A final portion of each strain was left with no antibiotic. E. coli strains were identified as susceptible or not based on the levels of DNA fragmentation in the portion of each strain incubated with ciprofloxacin and the portion incubated with tobramycin and ciprofloxacin.
The principals exemplified in Example 1 were confirmed with the aminoglycoside amikacin. Briefly, a susceptible and resistant strain of E. coli were exposed to similar conditions to those described in Example 1, except that amikacin was utilized as the protein synthesis inhibiting antibiotic. Specifically, each was strain subjected to four treatments. One portion received no antibiotics, and another portion received only a quinolone, such as ciprofloxacin or norfloxacin to induce DNA fragmentation. Still another portion received the protein synthesis inhibiting antibiotic aminoglycoside amikacin, followed by the quinolone. Another portion received only amikacin. A final portion received neither antibiotic.
The principals exemplified in Example 1 were further confirmed with the aminoglycoside gentamicin. Briefly, the rapid test was performed on 15 isolated E. coli strains according to the methodology described above, except that gentamicinin was utilized as the protein synthesis inhibiting antibiotic. Suppressed DNA fragmentation were used to characterize bacterial susceptibility and those characterizations were verified with the standard antibiogram for gentamicin by microdilution. […]

For the next experiment, the system named is Klebsiella pneumoniae. The experiment can be described thus: Variant Micromax assay of cell wall damage by meropenem after tobramycin, twelve strains. To be noted: for cell wall lysis by meropenem: tobramycin 4 μg/ml 15 min followed by meropenem 1 μg/ml 60 min. As for the experimental part:
(§1) After incubation cells were processed using a variant Micromax technology to visualize the affectation or not of the cell wall based on the release or not of the nucleoids contained inside the bacteria. In the same manner described previously, samples from cells from the culture are immersed in an agarose microgel on a slide and incubated with a specific lysing solution that removes the cell wall only in those bacteria whose peptidoglycan was affected, thus releasing in the microgel the nucleoids contained inside. […] The processed bacteria in microgel are dried, stained with a high sensitive fluorochrome for DNA like SYBR Gold and visualized under fluorescence microscopy.
Further exemplifying the concept described above twelve strains of Klebsiella pneumoniae, 7 susceptible and 5 resistant to tobramycin, were processed using the same rationale and procedure. Specifically, one portion of each was incubated with tobramycin at 4 μg/ml for 75 min. Another portion was incubated with Meropenem at 1 μg/ml for 60 min. Still another portion was incubated with tobramycin at 4 μg/ml for 15 minutes followed by meropenem at 1 μg/ml for 60 min, without removing the tobramycin. A final portion remained without any antibiotics.

For a further experiment, the system named is Pseudomonas aeruginosa. The experiment can be described thus: Variant Micromax assay of cell wall damage by meropenem after tobramycin (Example 5). To be noted: for release of nucleoids (cell wall damage): tobramycin 4 μg/ml 15 min followed by meropenem 0.2 μg/ml 60 min.
Text: As an exemplification of this principal, FIGS. 19-24 illustrates assays of two strains of Pseudomonas aeruginosa exponentially growing in Mueller-Hinton broth. Both strains were both susceptible to the β-lactam meropenem, which inhibits peptidoglycan synthesis. One strain was susceptible (FIGS. 19-21) and the other resistant (FIGS. 22-24) to the aminoglycoside tobramycin (inhibitor of protein synthesis).
For the purpose of rapidly distinguishing susceptible and resistant (i.e. non-susceptible) strains to tobramycin each strain was subjected to four treatments. A portion of each strain was incubated with tobramycin at 4 μg/ml for 75 min (FIGS. 19 and 22). The dose utilized, was indicated by the CLSI as the breakpoint of susceptibility to tobramycin. FIGS. 20 and 23 illustrate an assay from another portion of each strain, which was incubated with Meropenem at 0.2 μg/ml for 60 min. FIGS. 21 and 24, illustrate assays from still another portion of both strains which was incubated with tobramycin at 4 μg/ml for 15 min followed by meropenem at 0.2 μg/ml for 60 min, without removing the tobramycin. Still another portion of both strains was maintained without the addition of either antibiotic.
as §1

[1] abbreviates: rapid test, confirmed by microdilution antibiogram, 12 strains for tobramycin, 15 for gentamicin.

For `NC[C@H]1O[C@H](O[C@H]2[C@H](O)[C@@H](O[C@H]3O[C@H](CO)[C@@H](O)[C@H](N)[C@H]3O)[C@H](N)C[C@@H]2N)[C@H](N)C[C@@H]1O` [tobramycin], the “E. coli strains identified as non-susceptible (resistant)” value with Escherichia coli (setting [1]) was “three of the twelve strains as non-susceptible”. The “E. coli strains identified as susceptible” value with Escherichia coli (setting [1]) is recorded as “nine of the twelve strains as susceptible”. Moreover, the results for the “DNA fragmentation of nucleoids” value in the experiment with Escherichia coli (tobramycin-resistant clinical isolate) and in the experiment with Escherichia coli (tobramycin-susceptible TG1 strain) were “the DNA was extensively fragmented” and “nucleoids with reduced level of DNA fragmentation”, respectively. Further, the modification of nucleoids entry in the experiment on Escherichia coli (tobramycin alone 4 μg/ml 40 min, both tobramycin-susceptible and -resistant strains) is given as “did not result in any modifications of the nucleoids”. Also, the “strains resistant to tobramycin” value in the experiment on Klebsiella pneumoniae (of twelve strains) turned out to be 5. In the experiment on Klebsiella pneumoniae (of twelve strains), the “strains susceptible to tobramycin” value was 7. Moreover, the “cell wall lysis by meropenem” value is listed as “the affectation of the cell wall by meropenem was not suppressed” with Klebsiella pneumoniae (tobramycin-resistant strains) and “no appearance of cell wall lysis by meropenem” in the experiment with Klebsiella pneumoniae (tobramycin-susceptible strains). Also, the “release of nucleoids (cell wall damage)” value in the experiment on Pseudomonas aeruginosa (tobramycin-resistant strain) was “the nucleoids were released”; in the experiment with Pseudomonas aeruginosa (tobramycin-susceptible strain), “unchanged, non-lysed bacteria”. In addition, the “cell wall lysis and bacterial shape” value in the experiment on Pseudomonas aeruginosa (tobramycin alone 4 μg/ml 75 min, both strains) is reported as “does not result in cell wall lysis”.

Values taken from patent US10472663B2, “Procedure for the rapid determination of bacterial susceptibility to antibiotics that inhibit protein synthesis” (ABM TECHNOLOGIES, LLC, priority 2015, dated 2019).
